Experimental data as given in publication PMC10877733, “Discovery and Characterization of VU0542270, the First Selective Inhibitor of Vascular Kir6.1/SUR2B KATP Channels” (Molecular Pharmacology, 2024).

Assays:
Kir3.1/Kir3.2 = biological target: T1, Kir3.1/Kir3.2 (Homo sapiens, UniProt P48051+P48549); test: Thallium flux selectivity assay Kir3.1/Kir3.2; assay type: cell-based
T1 construct: expressed in transfected cells
T1 sequence (P48549 1-501): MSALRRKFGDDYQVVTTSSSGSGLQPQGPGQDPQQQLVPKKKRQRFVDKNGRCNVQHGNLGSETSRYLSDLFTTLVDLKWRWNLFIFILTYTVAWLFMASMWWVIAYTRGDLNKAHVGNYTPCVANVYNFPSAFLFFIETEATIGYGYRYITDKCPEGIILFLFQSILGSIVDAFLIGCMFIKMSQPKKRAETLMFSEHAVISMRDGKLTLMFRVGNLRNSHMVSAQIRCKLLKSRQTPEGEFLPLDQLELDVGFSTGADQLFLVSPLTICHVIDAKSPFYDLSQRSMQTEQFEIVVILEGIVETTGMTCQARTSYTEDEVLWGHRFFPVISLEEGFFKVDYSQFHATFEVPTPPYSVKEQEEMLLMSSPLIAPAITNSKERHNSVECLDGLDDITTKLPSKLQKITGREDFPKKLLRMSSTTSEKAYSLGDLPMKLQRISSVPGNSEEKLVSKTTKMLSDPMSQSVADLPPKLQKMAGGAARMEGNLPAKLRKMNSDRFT
T1 sequence (P48051 1-423): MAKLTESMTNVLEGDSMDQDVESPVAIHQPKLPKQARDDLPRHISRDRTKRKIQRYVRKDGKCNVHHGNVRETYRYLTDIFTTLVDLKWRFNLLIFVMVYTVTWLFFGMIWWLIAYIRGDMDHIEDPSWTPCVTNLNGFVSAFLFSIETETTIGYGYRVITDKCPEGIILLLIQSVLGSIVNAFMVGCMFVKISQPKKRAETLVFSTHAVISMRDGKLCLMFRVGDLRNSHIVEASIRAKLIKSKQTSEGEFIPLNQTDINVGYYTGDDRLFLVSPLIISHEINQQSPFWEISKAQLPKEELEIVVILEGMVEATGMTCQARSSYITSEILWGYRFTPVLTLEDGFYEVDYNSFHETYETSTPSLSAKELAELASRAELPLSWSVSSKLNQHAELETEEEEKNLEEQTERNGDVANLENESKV
Experimental: Quantitative thallium flux assays of Kir6.1/SUR2B activity were performed essentially as described previously for Kir6.2/SUR1 ([Raphemot et al., 2014]; [Kharade et al., 2019]). Stable T-Rex-HEK293-Kir6.1/SUR2B cells or transiently transfected HEK293T cells were plated in polyamine-coated, clear-bottomed, black-walled 384-well plates and were cultured (37°C/5% CO2) overnight in Dulbecco’s modified Eagle’s medium (Gibco, Carlsbad, CA, 11995-065) containing 10% FBS (2 mM Penicillin-Streptomycin). The following day, cells were washed with assay buffer (i.e., Hanks’ balanced salt solution/20 mM HEPES) and loaded for 1 hour with thallium sensor dye Brilliant Thallium (Ion Bioscience, San Marcos, TX) at room temperature. Dye-loaded cells were washed with assay buffer and transferred to a Panoptic Kinetic Imaging Plate Reader (Wavefront Bioscience, Franklin, TN). Control and test compound treatments were for 4 minutes prior to adding 0.5 mM chloride-free thallium stimulus buffer (Ion Bioscience) to initiate thallium flux. […] Selectivity assays against other Kir channels were performed essentially as described previously ([Kharade et al., 2018]; [McClenahan et al., 2022]).

[1] = Brain homogenate binding by equilibrium dialysis, mouse; assay type: in vitro ADME; settings: read-out: Fu, brain (mouse)
Experimental: Determination of VU0542270 fu in […] from mouse and rat was conducted using the same methodology and procedure as described for plasma protein binding assay with the following modifications: 1) a final compound concentration of 1 μM was used, and 2) naïve rat brains were homogenized in DPBS (1:3 composition of brain:DPBS, w/w) using a Mini-Bead Beater machine to obtain brain homogenate.
The diluted fraction unbound (fu2) in brain was calculated as (analyte to IS MS peak area ratio from Trans-buffer side)/(analyte to IS MS peak area ratio from Cis-brain homogenate side). Undiluted fraction unbound for the brain was calculated using the following equation: [drawing 1]
Mean values for each species were calculated from three replicates.

[2] = Intrinsic clearance in liver microsomes, human; assay type: in vitro ADME
Experimental: The in vitro intrinsic clearance (CLint) of VU0542270 was investigated in commercially obtained hepatic microsomes from rat, mouse, and human donors using the substrate depletion (i.e., loss-of-parent versus time, or t1/2 method) approach with analyte detection via LC-MS/MS. For each species, mean per cent parent remaining values at each time point were calculated from replicates raw data (analyte:IS peak area ratios) and used to determine in vitro t1/2 and CLint.
Experiments were carried out using a robot-assisted liquid handling system (TECAN model Evo 200). VU0542270 was incubated (1 µM final concentration) in buffer (100 mM potassium phosphate, pH 7.4, with 3 mM MgCl2) containing hepatic microsomes (0.5 mg/mL final concentration) from multiple species, discretely, at 37°C under constant orbital shaking. After 5 minutes (preincubation), reactions were initiated by the addition of NADPH (1 mM final concentration). At selected time intervals (0, 3, 7, 15, 25, and 45 minutes) post addition of NADPH, aliquots (50 µL) were taken and placed into a 96-shallow-well plate containing ice-cold acetonitrile (150 µL) with carbamazepine (IS, 50 nM). The plates were then centrifuged (3000 rcf at 4°C) for 10 minutes. […]
Predicted hepatic clearance (CLhep) was calculated using the following equation: [drawing 4] […]

SMILES: Cc1nc(-c2cccs2)sc1CNC(=O)Nc1cccs1 [VU0542270]
- IC50 (Kir3.1/Kir3.2): > 30 µM
- fraction unbound at 6 h, 1 µM [1]: 0.02
- Predicted CLhep,u (human) ([2]; corrected to plasma unbound fraction): 1.3 mL/min per kg
- Predicted CLhep (human) ([2]; from microsomal CLint): 19 mL/min per kg
